Assay results from US20110014226A1, “HIGH […] I[…]” (priority 2008, published 2011).

How the values were obtained:
D5 binding to 5-helix = assay: D5 Competitive Binding Assay (DCBA) high throughput screen with F19 counter-screen; parameters: species or system HIV-1; conditions: among the compounds listed in Table 2; DCBA primary screen vs F19 counter-screen
From the text: An in vitro binding assay was developed using D5 IgG conjugated to europium cryptate (Eu-D5) and a biotinylated gp41 mimetic molecule that presents the hydrophobic pocket in a stabilized structural context (termed 5-helix (or 5H) peptide). The assay readout is based on a fluorescence resonance energy transfer (FRET) format. Biotin-5-helix binds to a streptavidin-conjugated allophycocyanin (APC) substrate to form a 5H-SA-APC complex. When Eu-D5 binds to the hydrophobic pocket of biotin-5H, it brings the Eu into close proximity with the APC substrate to allow FRET from Eu to APC. When the reaction system is excited at a wavelength of 340 nm, the Eu signals at 620 nm. If the Eu is in close proximity to the APC, it excites the APC which results in long-lived emissions at 665 nm. Introducing a time delay (e.g., ˜100 μseconds) between the system excitation and fluorescence measurement allows the FRET signals to be cleared of non-specific short-lived emissions (“time-resolved FRET”). The resulting specific FRET signal indicative of the amount of Eu-D5 bound to biotin-5H can be quantified by the ratio of fluorescence [counts at 665 nm/fluorescence counts at 620 nm]×10,000. […]
Briefly, the assay was performed in the following manner. […] The plate was then read using the Fusion Universal Microplate Analyzer (Packard Bioscience). […]

[1] = ELISA of mouse antisera after immunization, coated with biotinylated Compound 2.58; format: in vivo; conditions: balb/c mice, 25 μg conjugate intramuscularly three times at 2-week intervals, Merck aluminum alum + IMO-2055; reciprocal endpoint titers by ELISA
CRM197 = conditions: mouse, in vivo
[2] = ELISA of mouse antisera after immunization with hapten-CRM197 conjugates, coated with biotinylated Compound 2.45; format: in vivo; conditions: balb/c mice, 25 μg conjugate intramuscularly three times at 2-week intervals, Merck aluminum alum + IMO-2055; reciprocal endpoint titers by ELISA
ccIZN17 = assay: ELISA of mouse antisera after immunization, coated with ccIZN17; format: in vivo; conditions: balb/c mice, 25 μg conjugate intramuscularly three times at 2-week intervals, Merck aluminum alum + IMO-2055; reciprocal endpoint titers by ELISA
5-helix = conditions: in vivo; for Post-dose 3 geometric mean antibody titer (GMT) elicited versus 5-helix: mouse
ccIZN36 = assay: ELISA of mouse antisera after immunization, coated with ccIZN36; format: in vivo; conditions: balb/c mice, 25 μg conjugate intramuscularly three times at 2-week intervals, Merck aluminum alum + IMO-2055; reciprocal endpoint titers by ELISA

CCNC(=O)[C@]1(Cc2ccccc2)CCCN(C(=O)[C@@H](Cc2ccc3ccccc3c2)NC(=O)N2CC(C)NC(C)C2)C1 (stereo partly drawn) [Compound 1.1]
specific inhibition of D5 binding relative to F19 inhibition (D5 binding to 5-helix): the best in terms of specific inhibition of D5 binding relative to F19 inhibition

CCNC(=O)[C@]1(Cc2ccccc2)CCCN(C(=O)[C@@H](Cc2ccc3ccccc3c2)NC(=O)N2CCNCC2)C1 [Compound 2.45]
Post-dose 3 geometric mean antibody titer (GMT) elicited versus Compound 2.58 [1]: >1,600,000
Post-dose 3 geometric mean antibody titer (GMT) elicited versus CRM197 (CRM197): 1,600
Post-dose 3 geometric mean antibody titer (GMT) elicited versus Compound 2.45 [2]: >1,600,000
Post-dose 3 geometric mean antibody titer (GMT) elicited versus ccIZN17 (ccIZN17): <100
binding activity of individual mouse sera in the 5H ELISA (5-helix): more pronounced binding activity
Post-dose 3 geometric mean antibody titer (GMT) elicited versus 5-helix (5-helix): 400
Post-dose 3 geometric mean antibody titer (GMT) elicited versus ccIZN36 (ccIZN36): <100

CCNC(=O)[C@]1(Cc2ccccc2)CCCN(C(=O)[C@@H](Cc2ccc(Cl)c(Cl)c2)NC(=O)N[C@@H]2CCCNC2)C1 [Compound 2.58]
Post-dose 3 geometric mean antibody titer (GMT) elicited versus Compound 2.58 [1]: 713,155
Post-dose 3 geometric mean antibody titer (GMT) elicited versus CRM197 (CRM197): 400
Post-dose 3 geometric mean antibody titer (GMT) elicited versus Compound 2.45 [2]: >1,600,000
Post-dose 3 geometric mean antibody titer (GMT) elicited versus ccIZN17 (ccIZN17): 200
binding activity of individual mouse sera in the 5H ELISA (5-helix): more pronounced binding activity
Post-dose 3 geometric mean antibody titer (GMT) elicited versus 5-helix (5-helix): 200
Post-dose 3 geometric mean antibody titer (GMT) elicited versus ccIZN36 (ccIZN36): <100
